Measured values: PubChem BioAssay AID743508 (Broad Institute, 2014)
Active and inactive are the calls of the source. No rule for the calls is given here.

target: Drosophila melanogaster bursicon receptor LGR2 (rickets); assay: LGR2 bursicon receptor antagonists, dose response, cell-based, HEK293, CRE-luciferase, beta-gal normalized, dry powder, set 2 (AID 743508); details: HEK293 LGR2 CRE-luciferase cAMP reporter, antagonist

IC50	SMILES
> 35 µM (inactive)	COc1ccc(NC(=O)Nc2ccc3c(c2)C(=O)N([C@H](C)CO)C[C@H](C)[C@H](CN(C)CC2CCCCC2)OCCCC[C@H](C)O3)cc1
< 35 µM	C[C@H](CO)N1C[C@H](C)[C@H](CN(C)C(=O)Nc2ccccc2)OCCCC[C@H](C)Oc2ccc(NC(=O)CCC(F)(F)F)cc2C1=O
< 35 µM	C[C@H](CO)N1C[C@H](C)[C@H](CN(C)C(=O)Nc2cccc3ccccc23)OCCCC[C@H](C)Oc2ccc(NC(=O)c3ccccc3)cc2C1=O
> 35 µM (inactive)	C[C@H]1CCCCO[C@H](CN(C)C(=O)Nc2cccc3ccccc23)[C@@H](C)CN([C@@H](C)CO)C(=O)c2cc(NS(=O)(=O)c3cn(C)cn3)ccc2O1
> 35 µM (inactive)	COc1ccc(S(=O)(=O)Nc2ccc3c(c2)C(=O)N([C@@H](C)CO)C[C@H](C)[C@@H](CN(C)C(=O)Nc2cccc4ccccc24)OCCCC[C@H](C)O3)cc1
< 35 µM	C[C@H](CO)N1C[C@H](C)[C@H](CN(C)C(=O)Nc2ccc(F)cc2)OCCCC[C@H](C)Oc2ccc(NC(=O)C3CCCCC3)cc2C1=O
< 35 µM	C[C@H](CO)N1C[C@H](C)[C@H](CN(C)C(=O)Nc2ccc(F)cc2)OCCCC[C@H](C)Oc2ccc(NC(=O)NC3CCCCC3)cc2C1=O
< 35 µM	C[C@H](CO)N1C[C@H](C)[C@H](CN(C)C(=O)Nc2ccc3c(c2)OCO3)OCCCC[C@H](C)Oc2ccc(NC(=O)NC3CCCCC3)cc2C1=O
< 35 µM	C[C@H](CO)N1C[C@H](C)[C@H](CN(C)C(=O)Nc2cccc3ccccc23)OCCCC[C@H](C)Oc2ccc(NC(=O)C3CCCCC3)cc2C1=O
< 35 µM	C[C@H]1CCCCO[C@@H](CN(C)C(=O)Nc2ccc(F)cc2)[C@@H](C)CN([C@@H](C)CO)C(=O)c2cc(NC(=O)C3CCCCC3)ccc2O1
< 35 µM	C[C@H]1CCCCO[C@@H](CN(C)C(=O)Nc2ccc(C(F)(F)F)cc2)[C@@H](C)CN([C@@H](C)CO)C(=O)c2cc(NC(=O)CCC(F)(F)F)ccc2O1
> 35 µM (inactive)	C[C@@H]1CN([C@@H](C)CO)C(=O)c2cc(NS(C)(=O)=O)ccc2O[C@@H](C)CCCCO[C@@H]1CN(C)Cc1ccc(C(F)(F)F)cc1
< 35 µM	C[C@H](CO)N1C[C@H](C)[C@H](CN(C)C(=O)Nc2ccc(C(F)(F)F)cc2)OCCCC[C@H](C)Oc2ccc(NC(=O)CCC(F)(F)F)cc2C1=O
> 35 µM (inactive)	C[C@@H]1CN([C@@H](C)CO)C(=O)c2cc(NC(=O)c3ccncc3)ccc2O[C@@H](C)CCCCO[C@H]1CN(C)C(=O)Nc1cccc2ccccc12
> 35 µM (inactive)	CC(C)NC(=O)Nc1ccc2c(c1)C(=O)N([C@H](C)CO)C[C@@H](C)[C@H](CN(C)S(C)(=O)=O)OCCCC[C@H](C)O2
< 35 µM	COc1ccc(NC(=O)N(C)C[C@@H]2OCCCC[C@H](C)Oc3ccc(NC(=O)C4CCCCC4)cc3C(=O)N([C@H](C)CO)C[C@@H]2C)cc1
< 35 µM	C[C@H](CO)N1C[C@H](C)[C@H](CN(C)C(=O)Nc2ccc(F)cc2)OCCCC[C@H](C)Oc2ccc(NC(=O)Nc3ccc(F)cc3)cc2C1=O

The next lines start with the compound.

SMILES	IC50
C[C@H](CO)N1C[C@H](C)[C@H](CN(C)C(=O)Nc2cccc3ccccc23)OCCCC[C@H](C)Oc2ccc(NC(=O)NC3CCCCC3)cc2C1=O	< 35 µM
C[C@H](CO)N1C[C@H](C)[C@H](CN(C)C(=O)Nc2ccc(C(F)(F)F)cc2)OCCCC[C@H](C)Oc2ccc(NC(=O)NC3CCCCC3)cc2C1=O	< 35 µM
C[C@H]1CCCCO[C@@H](CN(C)C(=O)Nc2ccc3c(c2)OCO3)[C@@H](C)CN([C@@H](C)CO)C(=O)c2cc(NC(=O)NC3CCCCC3)ccc2O1	< 35 µM
C[C@H](CO)N1C[C@H](C)[C@H](CN(C)C(=O)Nc2ccccc2)OCCCC[C@H](C)Oc2ccc(NC(=O)Nc3ccc4c(c3)OCO4)cc2C1=O	< 35 µM
Cc1noc(C)c1S(=O)(=O)Nc1ccc2c(c1)C(=O)N([C@H](C)CO)C[C@H](C)[C@H](CN(C)C(=O)Nc1ccc(F)cc1)OCCCC[C@@H](C)O2	> 35 µM (inactive)
C[C@H](CO)N1C[C@H](C)[C@H](CN(C)C(=O)Nc2ccccc2)OCCCC[C@H](C)Oc2ccc(NC(=O)C3CCCCC3)cc2C1=O	< 35 µM
C[C@H](CO)N1C[C@H](C)[C@H](CN(C)C(=O)Cc2ccccc2)OCCCC[C@H](C)Oc2ccc(NC(=O)Nc3ccc(C(F)(F)F)cc3)cc2C1=O	> 35 µM (inactive)
COc1ccc(NC(=O)N(C)C[C@@H]2OCCCC[C@H](C)Oc3ccc(NC(=O)NC4CCCCC4)cc3C(=O)N([C@H](C)CO)C[C@@H]2C)cc1	< 35 µM
C[C@H](CO)N1C[C@H](C)[C@H](CN(C)C(=O)Nc2ccccc2)OCCCC[C@H](C)Oc2ccc(NC(=O)Nc3ccccc3)cc2C1=O	< 35 µM
C[C@H](CO)N1C[C@H](C)[C@H](CN(C)C(=O)Nc2ccc(F)cc2)OCCCC[C@H](C)Oc2ccc(NC(=O)Nc3ccccc3)cc2C1=O	< 35 µM
COc1ccc(S(=O)(=O)N(C)C[C@@H]2OCCCC[C@H](C)Oc3ccc(NS(=O)(=O)c4ccc(F)cc4)cc3C(=O)N([C@@H](C)CO)C[C@@H]2C)cc1	< 35 µM
Cc1ccc(S(=O)(=O)Nc2ccc3c(c2)C(=O)N([C@H](C)CO)C[C@@H](C)[C@H](CN(C)S(=O)(=O)c2cccs2)OCCCC[C@@H](C)O3)cc1	> 35 µM (inactive)
C[C@H]1CCCCO[C@@H](CN(C)C(=O)Nc2ccccc2)[C@@H](C)CN([C@@H](C)CO)C(=O)c2cc(NC(=O)NC3CCCCC3)ccc2O1	< 35 µM
COc1ccc(S(=O)(=O)N(C)C[C@@H]2OCCCC[C@H](C)Oc3ccc(NS(=O)(=O)c4ccc(Cl)cc4)cc3C(=O)N([C@@H](C)CO)C[C@@H]2C)cc1	< 35 µM
C[C@@H]1CCCCO[C@H](CN(C)CC2CCCCC2)[C@H](C)CN([C@H](C)CO)C(=O)c2cc(NS(=O)(=O)c3ccccc3)ccc2O1	< 35 µM
COc1ccc(S(=O)(=O)Nc2ccc3c(c2)C(=O)N([C@H](C)CO)C[C@H](C)[C@H](CN(C)S(=O)(=O)c2ccc(F)cc2)OCCCC[C@@H](C)O3)cc1	> 35 µM (inactive)
COc1ccc(S(=O)(=O)Nc2ccc3c(c2)C(=O)N([C@@H](C)CO)C[C@@H](C)[C@H](CN(C)C(=O)Nc2cccc4ccccc24)OCCCC[C@H](C)O3)cc1	> 35 µM (inactive)
C[C@H](CO)N1C[C@H](C)[C@H](CN(C)C(=O)Nc2ccccc2)OCCCC[C@H](C)Oc2ccc(NC(=O)NC3CCCCC3)cc2C1=O	< 35 µM
C[C@H](CO)N1C[C@H](C)[C@H](CN(C)C(=O)Nc2ccc3c(c2)OCO3)OCCCC[C@H](C)Oc2ccc(NC(=O)C3CCCCC3)cc2C1=O	< 35 µM
C[C@H](CO)N1C[C@H](C)[C@H](CN(C)C(=O)Nc2cccc3ccccc23)OCCCC[C@H](C)Oc2ccc(NC(=O)CCC(F)(F)F)cc2C1=O	< 35 µM
C[C@H]1CCCCO[C@@H](CN(C)S(=O)(=O)c2ccc(Cl)cc2)[C@@H](C)CN([C@@H](C)CO)C(=O)c2cc(NC(=O)NC3CCCCC3)ccc2O1	< 35 µM
